Assay results from paper PMC8707700, “Ru(III) Complexes with Lonidamine-Modified Ligands” (International Journal of Molecular Sciences, 2021).
Where two headings read alike, the source gives them in different places.

Experiments:
[1] = system: A549; assay: Antiproliferative activity, MTT assay; format: cell-based, human; settings: read-out: IC50, µM A549
Protocol: (§1) The antiproliferative activity of new ligands and complexes was determined against human cell lines, including colon adenocarcinoma SW480, breast adenocarcinoma MCF-7, lung adenocarcinoma A549, neuroblastoma SHSY5Y, and non-tumourigenic HaCaT (Table 4). In general, complexes were more cytotoxic compared to ligands, lonidamine, and, in some cases, cisplatin. […] We chose this compound and the synthetically accessible complex 16 for mechanistic studies.
(§2) The antiproliferative activity was studied by MTT assays as published previously. For flow cytometry studies, cells were plated into 6-well plates (Eppendorf, Germany; 4 × 10^5 cells in 2 mL of DMEM) and incubated for 24 h. Solutions of complexes in DMSO were prepared immediately prior to the day of the experiments. Cells were treated with either 20 µM of cisplatin, 50 µM of 16, or 20 µM of 20. Concentrations corresponded to two-fold IC50 values based on MTT assays. Cells were incubated for 24 h, pooled, washed with cold PBS, and resuspended in DMEM. Aliquots of cells were processed as recommended in the Muse Annexin V&Dead Cell Kit or Muse Caspase-3/7 Kit (Luminex). Measurements were carried out on a Muse Cell Analyser, Luminex corp., TX, USA.

[2] = system: HaCaT; assay: Antiproliferative activity, MTT assay; format: cell-based, human; settings: read-out: IC50 HaCaT
Protocol: as §1, §2

[3] = system: MCF-7; assay: Antiproliferative activity, MTT assay; format: cell-based, human; settings: read-out: IC50, µM MCF-7
Protocol: as §1, §2

[4] = system: SW480; assay: Antiproliferative activity, MTT assay; format: cell-based, human; settings: read-out: IC50, µM SW480
Protocol: as §1, §2

[5] = Stability of Ru(III) complexes in phosphate buffer by UV-vis spectrophotometry; format: physicochemical; settings: 20 mM phosphate buffer pH 7.4, 100 mM NaCl, 37 °C; mean ± SD, three experiments
Protocol: The stability of Ru(III) complexes (15–20) was investigated in a solution resembling physiological conditions (20 mM of phosphate buffer, pH 7.4, and 100 mM of NaCl at 37 °C) by UV-vis spectrophotometry (Table 1). The half-transformation time t1/2 was calculated based on changes in the electronic absorption spectrum (Figure S1) and defined as the value of t at the Alin/2 point. ΔA(t) was plotted against λmax; the initial section was approximated as a linear function.
The stability of Ru(III) complexes was studied by electron absorption spectroscopy in 20 mM of phosphate buffer, pH 7.4, and 100 mM of NaCl. The working solution (2 mL, 200 μM complex) was prepared by diluting 10 μL of the original 40 mM solution in DMSO and 1.99 mL of phosphate buffer. UV-vis spectra were recorded every 60 s in the range of 280–600 nm at 37 °C. The half-transformation time was t1/2. For λmax, ΔA(t) was plotted, where ΔA = A0–Ai, an initial section, was approximated as a linear function. At ΔAline./2 point calculated as t = t1/2.

[6] = system: SH-SY5Y; assay: Antiproliferative activity, MTT assay; format: cell-based, human; settings: 72 h exposure, mean ± SD
Protocol: as §1, §2

[7] = Lipophilicity, shake-flask method water/n-octanol; format: physicochemical; settings: UV-vis, mean ± SD
Protocol: The lipophilicity of complexes 15–20 was studied using a standard shake-flask method in a mixture of water/n-octanol. For the quantification of compounds in the water phase, UV-vis spectrophotometry was used. […] Among other complexes, as expected, 20 was the most lipophilic (Table 1).
N-octanol was saturated with water and with water saturated with n-octanol; mixture400 mL of n-octanol (water) and 100 mL of water (n-octanol) was stirred for 24 h; and then fractions were separated. The sample of the complex was dissolved in n-octanol and a series of solutions in octanol (300, 250, 3 × 200, 150, 100, and 50 μM) was prepared. Absorption spectra were recorded and the calibration curve for maximum absorption was plotted. From 200 μM solutions, the mixtures with water were prepared (1:1, 1:2, 2:1 v/v) and shaken for 15 min. The organic phase was separated by centrifugation. The concentration of the complex in n-octanol was determined from the calibration curve and lipophilicity (logP) was calculated as log P = log [(C0–Caq)/Caq].

[8] = system: HCT116 cells; assay: Annexin V/7-AAD flow cytometry (Muse Annexin V & Dead Cell Kit); format: cell-based; settings: HCT116, 24 h, 2xIC50; one representative experiment
Protocol: Mechanisms of cell death, that is, Annexin V/7-AAD reactivity and caspase 3/7 activation, were determined for 16 and 20 in HCT116 cells using the Muse® Annexin V & Dead Cell Kit (Luminex corp., Austin, TX, USA) and flow cytometry. Cells were incubated with 16, 20, or cisplatin (reference drug) for 24 h at concentrations corresponding to 2xIC50 values (obtained in MTT assays; Table 4). The percentages of Annexin V-positive cells in response to 16 and 20 were higher than cisplatin (Figure 8). Complex 20 with the C12 linker induced Annexin V positivity slightly more efficiently than 16 with the C3 linker (27.4 ± 2.1% vs. 19.7 ± 0.6%).
as §2

[9] = Cyclic voltammetry (redox potentials); format: physicochemical; settings: Pt and GC electrodes, CH3CN and CH2Cl2, any applied potential
Protocol: The redox behaviour of ligand 10 and complexes 15–20 was studied on Pt and glassy carbon (GC) electrodes in CH3CN and CH2Cl2.
All electrochemical measurements were carried out under argon at room temperature. Cyclic voltammetry (CV) experiments were performed in KO264 PAR three-electrode microcells in CH3CN solution with 0.05 M of Bu4NBF4 as a supporting electrolyte using a IPC-Win potentiostat. The number of transferred electrons was determined by comparing to the height of the […] wave for the same concentration. A glassy carbon (GC) working electrode (diameter 2 mm), a platinum wire auxiliary electrode, and an aqueous Ag/AgCl/KCl (sat.) reference electrode was used. Solvents were routinely distilled and dried prior to use.

| Molecule | IC50 ([1]; Homo sapiens, A549, 72 h) [µM] | IC50 ([2]; Homo sapiens, HaCaT, 72 h) [µM] | IC50 ([3]; Homo sapiens, MCF7, 72 h) [µM] | IC50 ([4]; Homo sapiens, SW480, 72 h) [µM] | t1/2 (half-transformation time) [5] [min] | IC50 ([1]; MTT, 72 h exposure, mean ± SD) [µM] | IC50 ([3]; MTT, 72 h exposure, mean ± SD) [µM] | IC50 [6] [µM] | IC50 ([4]; MTT, 72 h exposure, mean ± SD) [µM] | melting point [°C] | also measured |
| --- | --- | --- | --- | --- | --- | --- | --- | --- | --- | --- | --- |
| O=C(NCCCCCCCCn1ccnc1)c1nn(Cc2ccc(Cl)cc2Cl)c2ccccc12 [Compound 13, N-(8-(1H-Imidazol-1-yl)octyl)-1-(2,4-dichlorobenzyl)-1H-indazole-3-carboxamide] | 15 ± 6 | 45 ± 2 | 10 ± 2 | > 90 | – | – | – | – | – | – | – |
| Na[trans-Ru(DMSO)(C22H21Cl2N5O)Cl4] [Compound 17] | – | – | – | – | 6 ± 0.333 | > 30 | > 30 | 27.7 ± 3.3 | 21 ± 1.8 | – | – |
| O=C(NCCn1ccnc1)c1nn(Cc2ccc(Cl)cc2Cl)c2ccccc12 [Compound 9, N-(2-(1H-Imidazol-1-yl)ethyl)-1-(2,4-dichlorobenzyl)-1H-indazole-3-carboxamide] | 50 ± 16 | 23 ± 2 | 35 ± 6 | 48 ± 10 | – | – | – | – | – | 120 to 121 | – |
| O=C(NCCCCCCn1ccnc1)c1nn(Cc2ccc(Cl)cc2Cl)c2ccccc12 [Compound 12, N-(6-(1H-Imidazol-1-yl)hexyl)-1-(2,4-dichlorobenzyl)-1H-indazole-3-carboxamide] | 24 ± 10 | 40 ± 4 | 17 ± 2.5 | 16 ± 6 | – | – | – | – | – | – | – |
| O=C(NCCCCn1ccnc1)c1nn(Cc2ccc(Cl)cc2Cl)c2ccccc12 [Compound 11, N-(4-(1H-Imidazol-1-yl)butyl)-1-(2,4-dichlorobenzyl)-1H-indazole-3-carboxamide] | 25 ± 7 | 45 ± 3 | 22 ± 6 | 28 ± 8 | – | – | – | – | – | 98 to 100 | – |
| Na[trans-Ru(DMSO)(C24H25Cl2N5O)Cl4] [Compound 18] | – | – | – | – | 10.8 ± 0.5 | 12.9 ± 1 | 22 ± 0.7 | 5.1 ± 2.5 | 19.6 ± 3.9 | – | Log P [7]: 0.6 ± 0.1 |
| N.N.[Cl][Pt][Cl] [cisplatin, reference compound] | – | – | – | – | – | 23 ± 6.5 | > 30 | 9.5 ± 0.1 | 21.7 ± 0.5 | – | IC50 ([2]; MTT, 72 h exposure, non-tumourigenic cells, mean ± SD): 10 ± 5 µM; early apoptosis (Annexin V/7-AAD) [8]: 4%; late apoptosis (Annexin V/7-AAD) [8]: 8%; live cells (Annexin V/7-AAD) [8]: 88%; necrosis (Annexin V/7-AAD) [8]: 0% |
| O=C(NCCCCCCCCCCCCn1ccnc1)c1nn(Cc2ccc(Cl)cc2Cl)c2ccccc12 [Compound 14, N-(12-(1H-Imidazol-1-yl)dodecyl)-1-(2,4-dichlorobenzyl)-1H-indazole-3-carboxamide] | 15 ± 2.2 | – | 20.8 ± 4.7 | 8.4 ± 1.6 | – | – | – | – | – | 86 to 88 | – |
| O=C(NCCCn1ccnc1)c1nn(Cc2ccc(Cl)cc2Cl)c2ccccc12 [Compound 10, N-(3-(1H-Imidazol-1-yl)propyl)-1-(2,4-dichlorobenzyl)-1H-indazole-3-carboxamide] | > 90 | 39 ± 4 | > 90 | > 90 | – | – | – | – | – | 121 to 122 | redox transitions of the ligand [9]: redox transitions were not observed |
| Na[trans-Ru(DMSO)(C26H29Cl2N5O)Cl4] [Compound 19] | – | – | – | – | 23.17 ± 1.17 | 5.9 ± 2.6 | 17.1 ± 0.3 | 2.64 ± 1.5 | 9.3 ± 0.1 | – | – |
| Na[trans-Ru(DMSO)(C20H17Cl2N5O)Cl4] [Compound 15] | – | – | – | – | 6 ± 0.333 | > 30 | 20.4 ± 0.1 | 25.8 ± 4.5 | 21.4 ± 1.8 | – | – |
| O=C(O)c1nn(Cc2ccc(Cl)cc2Cl)c2ccccc12 [lonidamine, 1-(2,4-dichlorobenzyl)-1H-indazole-3-carboxylic acid] | – | – | – | – | – | – | – | – | – | – | IC50 ([1]; Homo sapiens, A549, MTT, 72 h exposure, mean ± SD): > 90 µM; IC50 ([2]; Homo sapiens, HaCaT, MTT, 72 h exposure, non-tumourigenic cells, mean ± SD): 3 ± 1 µM; IC50 ([3]; Homo sapiens, MCF7, MTT, 72 h exposure, mean ± SD): 30 ± 10 µM; IC50 ([6]; Homo sapiens, SH-SY5Y): > 30 µM; IC50 ([4]; Homo sapiens, SW480, MTT, 72 h exposure, mean ± SD): > 90 µM |
